Columns and labels:
[1] = biological target: T1, Fatty acid-binding protein, heart (Homo sapiens, UniProt P05413); assay: Binding affinity to human FABP3 expressed in Escherichia coli BL21 (DE3) at 10 uM in DMPC liposomes by surface plasmon resonance analysis
[2] = biological target: T1, Fatty acid-binding protein, heart; assay: Binding affinity to human FABP3 expressed in Escherichia coli BL21 (DE3) at 60 uM by surface plasmon resonance analysis
[3] = biological target: T1, Fatty acid-binding protein, heart; assay: Binding affinity to human FABP3 expressed in Escherichia coli BL21 (DE3) in DMPC liposomes by surface plasmon resonance analysis

T1 sequence (P05413 whole entry): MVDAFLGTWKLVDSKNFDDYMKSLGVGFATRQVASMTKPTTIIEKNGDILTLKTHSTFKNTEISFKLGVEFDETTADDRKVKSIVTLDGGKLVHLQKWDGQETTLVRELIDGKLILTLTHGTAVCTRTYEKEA

Row | Kd [1] [nM] | Kd [3] [nM] | SMILES | Kd [2] [µM]
1 | 401 |  | CCCCCCCCCCC/C=C\CCCCC(=O)O | 54.2
2 |  | 2.76 | CC/C=C\C/C=C\C/C=C\CCCCCCCC(=O)O | 
3 |  |  | CCCCCCCCCCCCCC(=O)OC[C@H](COP(=O)(O)OCC[N+](C)(C)C)OC(=O)CCCCCCCCCCCCC | 0.0036

Source: ChEMBL document CHEMBL3120145, “Interaction kinetics of liposome-incorporated unsaturated fatty acids with fatty acid-binding protein 3 by surface plasmon resonance” (Bioorg Med Chem, 2014)
